Laboratory results published in the METLIN SMRT retention time set (Domingo-Almenara et al. 2019).

Assay: gradient 5% acetonitrile 3 min, to 50% in 2 min, to 85% in 15 min, held 3 min, 100 µL/min
Settings: column: Zorbax Extend-C18 2.1 x 50 mm; eluents: water / acetonitrile, 0.1% formic acid
Outline: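 A Zorbax Extend-C18 column (2.1 × 50 mm, 1.8 μm) run at 100 μL/min with water and acetonitrile, both containing 0.1% formic acid, separated mixtures of ~100 pure standards. The HPLC was coupled to a quadrupole time-of-flight mass spectrometer operated in positive and negative ionization mode, with dead and dwell volumes of 40 μL and 900 μL. Each retention time was taken from a computationally picked adduct peak that was then manually inspected.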

Row | Compound | RP-LC retention time [s]
1 | Cc1nc(-c2ccc(N3CCN(C(=O)COc4ccccc4)CC3)nc2)sc1C | 851
2 | CCn1c(=O)c(N2CCC(NC(=O)NCc3ccc(F)cc3)CC2)nc2cccnc21 | 850
3 | COCCCN1C(=O)c2ccc(-c3ccco3)n2CC1(C)C(=O)NCc1ccccc1 (centres undefined) | 817
4 | CCOc1ccc(CC(=O)Nc2cc3c(cc2N(C)C)n(C)c(=O)c(=O)n3C)cc1OCC | 763
5 | Cc1ccc2nc(-c3cccc(S(=O)(=O)N4CCCC4)c3)cn2c1 | 657
6 | COc1cccc(NC(=O)N2CCC3(CC2)N=C(c2cccc(Cl)c2)C(=O)N3)c1 | 878
7 | O=C(C1=C(O)C(=O)N(CCCn2ccnc2)C1c1ccc(F)cc1)c1cc2ccccc2o1 (centres undefined) | 622
8 | Cc1ccccc1CNC(=O)C1(C)CCCN(C(=O)Nc2cccc(F)c2)C1 (centres undefined) | 937
9 | O=C(Cn1nc2nc(N3CCCC3)ccn2c1=O)NCCc1ccccc1 | 947
10 | Cc1ccc(NC(=O)Cn2nc3n(c2=O)CCCCC3)cc1F | 734
11 | CCn1c(=O)n(CC)c2cc(N3CCCC3)c(NC(=O)CC(=O)OC)cc21 | 583
12 | O=C(c1cccs1)N1CCC(Nc2ncnc3c2CCC3)C1 (centres undefined) | 547
13 | N#Cc1c(NC(=O)CSc2nnc3ccccn23)sc2c1CCC2 | 704
14 | Cc1ncsc1CN1CCC(Cc2ncc(C)n2Cc2ccccc2)C1 (centres undefined) | 550
15 | COc1cccc(CN2C[C@@H]3C(=O)N(CCCN4CCCC4=O)C(=O)[C@@H]3C2)c1 | 598
16 | CC1Oc2ccc(-c3csc(NC(=O)COc4ccc(Cl)cc4)n3)cc2N(C)C1=O (centres undefined) | 1070
17 | CC1(C(=O)NCc2ccccc2)CCCN(C(=O)Nc2ccc(Cl)cc2)C1 (centres undefined) | 962
18 | COc1ccc(NC(=O)N2CCN(CCn3c(C(C)C)nc4cccnc43)CC2)c(OC)c1 | 592

Row | Compound | RP-LC retention time [s]
19 | CC(=O)NCC(=O)N1CCCn2cc(-c3ccccc3F)nc21 | 580
20 | CCOc1ccc(/C=C/C(=O)Nc2nc(-c3ccc(C)cc3)c(C)s2)cc1 | 726
21 | Cc1cc2oc(C(=O)NCC(c3cccs3)N(C)C)cc(=O)c2cc1Cl (centres undefined) | 652
22 | CCNC(=O)N1CCN(CCCC(c2ccc(F)cc2)c2ccc(F)cc2)CC1 | 766
23 | O=S(=O)(NCC1CCN(Cc2cccs2)CC1)c1cc(F)ccc1F | 562
24 | CC1Oc2ccc(S(=O)(=O)N3CCC(C(=O)N4CCCc5ccccc54)CC3)cc2NC1=O (centres undefined) | 891
25 | COc1cc(NC(=O)c2nnn(-c3cc(OC)cc(OC)c3)c2C)cc(OC)c1 | 1050
26 | Cc1nn(CC(=O)NCc2ccc(F)cc2F)c(=O)c2nc(-c3ccccc3)sc12 | 914
27 | CCc1nc2c(NC(=O)c3ccc(C)c(F)c3)cccn2n1 | 850
28 | CN(Cc1cc(Cl)ccc1F)C1CCc2nnc(C3CCOCC3)n2CC1 (centres undefined) | 592
29 | Cc1nc(CC(=O)Nc2ccc(Cl)c(F)c2)sc1C(=O)NC1CC1 | 750
30 | COc1ccc2c(c1)C1(CCN(C(=O)COc3ccccc3)C1)C(=O)N2C (centres undefined) | 791
31 | CCN1C(=O)COc2ccc(-c3csc(NC(=O)CCC4CCCCC4)n3)cc21 | 934
32 | Cc1ccc(-c2cc3n(n2)CCCN(C(=O)c2cnccn2)C3)cc1 | 766
33 | CCOc1cccc(C2c3[nH]c4ccccc4c3CCN2C(=O)Cc2cccs2)c1 (centres undefined) | 1180
34 | CN(C)C/C=C(/c1ccc(Br)cc1)c1cccnc1 | 664
35 | Cc1ccc(NC(=O)Cn2nc3cc(-c4ccccc4)nc(C)n3c2=O)c(C)c1 | 985
36 | Cc1ncsc1C1N(C2CCN(C(=O)Cn3ccnc3)CC2)C(=O)C12CCCC2 (centres undefined) | 594

Now from value to compound:

Row | RP-LC retention time [s] | Compound
37 | 664 | COc1ccc(CNC(=O)c2cc3c(=O)n(C)ccc3n2C)cc1
38 | 979 | COc1cc(OC)cc(-c2noc(-c3nn(-c4ccc(C)c(C)c4)ccc3=O)n2)c1
39 | 1270 | Cc1cc(C)c(S(=O)(=O)N2CCCC2c2nc(-c3cccc(F)c3)no2)cc1C (centres undefined)
40 | 651 | COc1ccc(CNC(=O)Cn2nc3c4ccccc4ncn3c2=O)cc1
41 | 1110 | Cc1ccc(CNC(=O)C2(C)CCCN(C(=O)Nc3ccc(Br)c(C)c3)C2)cc1 (centres undefined)
42 | 776 | Cc1nn(-c2ccc(SCC(=O)NC(C)C)nn2)c(C)c1C
43 | 660 | Cc1ccc(N2CC(NC(=O)Nc3nc(C)cs3)CC2=O)cc1 (centres undefined)
44 | 621 | O=S(=O)(c1ccc2c(c1)OCCO2)N1CCCn2nc(-c3cccnc3)cc2C1
45 | 918 | O=C(Cn1ccc2ccc(N3CCOCC3)nc21)NCc1cccc(Br)c1
46 | 566 | Cn1nnc2cc(CNC(=O)c3cccnc3)ccc21
47 | 646 | O=C(CCCn1c(=O)c2cccn2c2ccc(Br)cc21)NCc1ccccn1
48 | 548 | O=C1C(O)C2(CCCCC2)N1C1CCN(Cc2ccc(F)c(F)c2)CC1 (centres undefined)
49 | 729 | Cc1ccc(N(C)S(=O)(=O)c2cc(-c3[nH]ncc3C(=O)N(C)C)oc2C)cc1
50 | 972 | Cc1ccc(-c2ccc(-n3nc(C)c(S(=O)(=O)N4CCOCC4)c3C)nn2)cc1
51 | 545 | COc1ccc(CNC(=O)c2cn3ccc(C)cc3n2)cc1
52 | 1070 | CN(C)c1cccc(-c2nn3c(-c4ccc5ccccc5n4)nnc3s2)c1
53 | 596 | COC(=O)CC(NC(=O)N1CCCn2nc(-c3cccnc3)cc2C1)c1ccccc1 (centres undefined)
54 | 830 | CCOc1ccc(CNC(=O)c2ccc3c(c2)nc2n3CCN(C3CCCCC3)C2=O)cc1
55 | 784 | CN(CC1CCOCC1)C(=O)Nc1cccc(Br)c1
56 | 741 | Cc1c(Cn2c(C)nc3c(C(=O)O)cc(N4CCOCC4)cc32)cccc1C(F)(F)F
57 | 1180 | c1ccc(CCc2nnc3sc(-c4ccc5ccccc5n4)nn23)cc1
58 | 755 | Cn1cc(CCNS(=O)(=O)c2ccc(F)cc2Cl)c2cccnc21
59 | 626 | CCc1nccn1Cc1noc(-c2ccc(OC)cc2)n1
60 | 577 | CN(C)CCCNC(=O)Cn1c(=O)n(-c2ccc(F)cc2)c2ncccc21
61 | 913 | Cc1ccccc1N1C(=O)CN(S(=O)(=O)c2ccccc2)CC1(C)C(=O)NCc1ccc(F)cc1 (centres undefined)
62 | 946 | Cc1ccc(-n2cccc2CC(=O)NCc2ccc3c(c2)OCO3)cc1
63 | 617 | Cc1ccc(NC(=O)Cn2c(N)nc(C)cc2=O)c(C)c1

Row | RP-LC retention time [s] | Compound
64 | 860 | CCOC(=O)c1[nH]c(C)c(C(=O)N(Cc2ccccc2)C(C)C)c1C
65 | 979 | CCOC(=O)c1c(C)oc2nc(C)nc(N3CCN(c4ccc(OC)cc4)CC3)c12
66 | 1030 | CCn1c(C(=O)NCCc2ccc(OC)c(OC)c2)cc2sc(Cl)cc21
67 | 988 | COC(=O)c1sc2ccc(NC(=O)C3CCN(S(=O)(=O)c4cccs4)CC3)cc2c1OC
68 | 759 | COc1ccc(N2CCN(C(=O)Cn3ccc4c(SCc5ccc(F)cc5)nccc43)CC2)cc1
69 | 782 | COc1cc2nccc(Oc3ccc(NC(=O)Nc4ccc(F)cc4F)c(F)c3)c2cc1OC
70 | 640 | COc1ccc(CNC(=O)c2cnc(N3CCC4(CC3)OCCO4)nc2N)c(OC)c1
71 | 685 | O=C(NCCn1nc(-c2cccs2)ccc1=O)c1ccc(-n2cccn2)nn1
72 | 828 | CC(C)c1nnc(NC(=O)c2cc(Cl)ccc2Cl)s1
73 | 1050 | COc1ccc(-c2noc(N3CCC(C(=O)NCCC4=CCCCC4)CC3)n2)cc1
74 | 690 | Cc1cc(Nc2cccc(C(C)O)c2)nc(-n2cc([N+](=O)[O-])cn2)n1 (centres undefined)
75 | 844 | Cc1cc(N2CCN(S(=O)(=O)c3cccc(Cl)c3)CC2)nc(NC2CCCCC2)n1
76 | 543 | CN(C)CCCNC(=O)C1CCN(c2nc3ccc(-c4cccnc4)nc3s2)CC1
77 | 956 | Cc1cc(Cl)ccc1NC(=O)c1cnc(-c2ccccc2)nc1-c1ccncc1
78 | 767 | CC(C)CC(NC(=O)Cc1ccc(Cl)cc1)C(=O)Nc1nc2ccccc2[nH]1 (centres undefined)
79 | 913 | COc1ccc(NC(=O)Nc2nccn(-c3ccc(C)c(C)c3)c2=O)cc1OC
80 | 627 | Cc1ccc(-n2nc(C)c3nc(CCC(=O)N4CCN(c5ccccn5)CC4)c(=O)n(C)c32)cc1
81 | 892 | Cc1ccccc1-c1nsc(SCC(=O)NCc2ccco2)n1
82 | 821 | O=C(Nc1ccc2c(c1)CN(C(=O)c1cccs1)CC2)c1ccccc1C(F)(F)F
83 | 781 | Cc1cc2nn(CC(=O)NCc3ccccc3)c(=O)n2c(-c2ccc(F)cc2)n1
84 | 862 | COc1ccc(C(=O)N2CCc3cc(-c4csc(C)n4)ccc32)cc1OC
85 | 1250 | Cc1nc(-c2ccccc2)sc1C(=O)Nc1nc(-c2ccc(F)cc2)cs1
86 | 860 | O=C(NCCc1csc(-c2ccccc2)n1)c1cccs1
87 | 706 | COC(=O)c1c(NCc2c(C)noc2C)c2cccc(Cl)c2[nH]c1=O
88 | 922 | Cc1ccc2c(c1)N(CCCC(=O)Nc1ccc(C)c(C)c1)C(=O)CO2
89 | 736 | CCNC(=O)C1CCN(S(C)(=O)=O)c2cc(Cl)ccc2O1 (centres undefined)
